Test results published in patent US20040231558A1, “Water-color ink” (priority 2001, published 2004).

Columns and labels:
[1] = Evaluation of light fastness-1 (OD value of printed portion after 100 hours xenon fadeometer); type: physicochemical; conditions: ink prepared as in Example 1 from the salt named in the row; OD value of printed portion after 100 hours xenon fadeometer
Summary of the method: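 Prints were made on a piezo ink-jet printer. Optical density of the printed portion was measured after 100 hours of irradiation in a xenon fadeometer.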

[2] = Evaluation of light fastness-2 (OD value of printed portion after 400 hours xenon fadeometer); type: physicochemical; conditions: ink prepared as in Example 1 from the salt named in the row; OD value of printed portion after 400 hours xenon fadeometer
Summary of the method: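 Ink loaded into a piezo ink-jet printer (EM-930C) and printed; printed portion irradiated for 400 hours in a xenon fadeometer, then printing density (OD value) measured to judge light fastness.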

[3] = Evaluation of moisture resistance (image-recorded paper at 40° C. and humidity 85%, visual observation); type: physicochemical; conditions: image-recorded paper at 40° C. and humidity 85%, visually observed
[4] = Evaluation of storage stability of ink (40° C. for 3 months, insoluble matter and clogging); type: physicochemical; conditions: recording liquid stored at 40° C. for 3 months; insoluble matter and clogging
Summary of the method: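 Ink stored at 40° C. for 3 months, then checked for precipitated insoluble matter. Clogging assessed after long continuous recording on a piezo-type ink-jet printer.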

[5] = Solubility in water of the salt

| Compound | (A)-1 light fastness-1 [1] | (A)-2 light fastness-2 [2] | (B) moisture resistance [3] | (C) storage stability [4] | Solubility in water ([5]; salt type M1 to M4) | Solubility in water ([5]; % by weight) |
| --- | --- | --- | --- | --- | --- | --- |
| Cc1c(N=Nc2cccc(C(=O)O)c2C(=O)O)c(O)n(Cc2ccc(C(=O)O)cc2)c(=O)c1C#N [compound 58] | ⊚ | ◯ | Δ | ◯ | >5% |  |
| Cc1c(C(=O)O)ccc(C(=O)O)c1N=Nc1c(O)[nH]c(=O)c(C#N)c1C [Compound No. 24] | ⊚ | ◯ | ◯ | ◯ | >5% |  |
| Cc1c(C(=O)O)ccc(C(=O)O)c1N=Nc1c(C)c(C#N)c(=O)n(CCCS(=O)(=O)O)c1O [compound 137] | ⊚ | ⊚ | Δ | ◯ | >5% |  |
| Cc1c(N=Nc2cc(C(=O)O)ccc2C(=O)O)c(O)n(CC(=O)O)c(=O)c1C#N [compound 77] | ⊚ | ⊚ | Δ | ◯ | >5% |  |
| Cc1c(N=Nc2cccc(C(=O)O)c2C(=O)O)c(O)[nH]c(=O)c1C#N [Compound No. 1] | ⊚ | ⊚ | ◯ | ◯ | >3% |  |
| Cc1c(N=Nc2cccc(C(=O)O)c2C(=O)O)c(O)n(CS(=O)(=O)O)c(=O)c1C#N [compound 105] | ⊚ | ◯ | Δ | ◯ | >5% |  |
| C[N+](C)(C)C.C[N+](C)(C)C.C[N+](C)(C)C.C[N+](C)(C)C.Cc1c(N=Nc2cc(C(=O)[O-])ccc2C(=O)[O-])c(O)n(CCNc2nc(Cl)nc(NCCn3c(O)c(N=Nc4cc(C(=O)[O-])ccc4C(=O)[O-])c(C)c(C#N)c3=O)n2)c(=O)c1C#N | ⊚ | ∘ | ⊚ | ∘ |  | ≥ 5% |
| Cc1c(C(=O)O)ccc(C(=O)O)c1N=Nc1c(C)c(C#N)c(=O)n(CC(O)CC(=O)O)c1O (stereo not drawn) [compound 164] | ⊚ | ◯ | ◯ | ◯ | >8% |  |
| Cc1c(N=Nc2cc(C(=O)[O-])ccc2C(=O)[O-])c(O)n(CCNc2nc(Cl)nc(NCCn3c(O)c(N=Nc4cc(C(=O)[O-])ccc4C(=O)[O-])c(C)c(C#N)c3=O)n2)c(=O)c1C#N.[K+].[K+].[K+].[K+] [potassium salt of compound No. 245] | ⊚ | ∘ | ⊚ | ∘ |  | ≥ 3% |
| Cc1c(N=Nc2cc(C(=O)O)ccc2C(=O)O)c(O)n(Cc2cc(S(=O)(=O)O)cc(S(=O)(=O)O)c2)c(=O)c1C#N [compound 149] | ⊚ | ◯ | ◯ | ◯ | >10% |  |
| CNC(=O)c1cc(C(=O)O)c(N=Nc2c(O)[nH]c(=O)c(C#N)c2C)cc1C(=O)O [compound 14] | ⊚ | ⊚ | ◯ | ◯ | >3% |  |
| Cc1c(N=Nc2cc(S(=O)(=O)O)c(C(=O)O)cc2C(=O)O)c(O)[nH]c(=O)c1C#N [compound 7] | ⊚ | ⊚ | Δ | ◯ | >10% |  |
| Cc1c(N=Nc2cc(C(=O)O)ccc2C(=O)O)c(O)n(-c2cc(S(=O)(=O)O)cc(S(=O)(=O)O)c2)c(=O)c1C#N [compound 142] | ⊚ | ◯ | ◯ | ◯ | >8% |  |
| Cc1c(N=Nc2cccc(C(=O)O)c2C(=O)O)c(O)n(CCCC(=O)O)c(=O)c1C#N [compound 48] | ⊚ | ◯ | ◯ | ◯ | >5% |  |
| Cc1c(N=Nc2cc(Cl)cc(C(=O)O)c2C(=O)O)c(O)[nH]c(=O)c1C#N [compound 3] | ⊚ | ⊚ | ◯ | ◯ | >3% |  |
